We go through one compound from ChEMBL document CHEMBL5058646 (2022).

Broadly, the Ki is the equilibrium dissociation constant of an inhibitor or competing ligand from its target. Broadly, the Tm is the temperature at the midpoint of the melting transition. One may read the inhibition as the share of the control response that was lost under treatment.

Test [1] has as its target T1, Sigma intracellular receptor 2 (Homo sapiens, UniProt Q5BJF2). Briefly: GPCRScan assay: inhibition of Sigma 2. Also on record: radioligand conc. used [nm] 5.0, parental cells HEKT.
Test [2] concerns the target Serine/threonine-protein kinase Chk2 (Homo sapiens) (UniProt O96017). Briefly: CHEK2 SGC Tm panel (DSF). The note with it: Compound concentration 20.0 uM.
The target of test [3] is Death-associated protein kinase 1 (Homo sapiens) (UniProt P53355). Briefly: DAPK1 SGC Tm panel (DSF). Conditions: Compound concentration 20.0 uM.
Death-associated protein kinase 1 (Homo sapiens), sequence (P53355 whole entry, looked up): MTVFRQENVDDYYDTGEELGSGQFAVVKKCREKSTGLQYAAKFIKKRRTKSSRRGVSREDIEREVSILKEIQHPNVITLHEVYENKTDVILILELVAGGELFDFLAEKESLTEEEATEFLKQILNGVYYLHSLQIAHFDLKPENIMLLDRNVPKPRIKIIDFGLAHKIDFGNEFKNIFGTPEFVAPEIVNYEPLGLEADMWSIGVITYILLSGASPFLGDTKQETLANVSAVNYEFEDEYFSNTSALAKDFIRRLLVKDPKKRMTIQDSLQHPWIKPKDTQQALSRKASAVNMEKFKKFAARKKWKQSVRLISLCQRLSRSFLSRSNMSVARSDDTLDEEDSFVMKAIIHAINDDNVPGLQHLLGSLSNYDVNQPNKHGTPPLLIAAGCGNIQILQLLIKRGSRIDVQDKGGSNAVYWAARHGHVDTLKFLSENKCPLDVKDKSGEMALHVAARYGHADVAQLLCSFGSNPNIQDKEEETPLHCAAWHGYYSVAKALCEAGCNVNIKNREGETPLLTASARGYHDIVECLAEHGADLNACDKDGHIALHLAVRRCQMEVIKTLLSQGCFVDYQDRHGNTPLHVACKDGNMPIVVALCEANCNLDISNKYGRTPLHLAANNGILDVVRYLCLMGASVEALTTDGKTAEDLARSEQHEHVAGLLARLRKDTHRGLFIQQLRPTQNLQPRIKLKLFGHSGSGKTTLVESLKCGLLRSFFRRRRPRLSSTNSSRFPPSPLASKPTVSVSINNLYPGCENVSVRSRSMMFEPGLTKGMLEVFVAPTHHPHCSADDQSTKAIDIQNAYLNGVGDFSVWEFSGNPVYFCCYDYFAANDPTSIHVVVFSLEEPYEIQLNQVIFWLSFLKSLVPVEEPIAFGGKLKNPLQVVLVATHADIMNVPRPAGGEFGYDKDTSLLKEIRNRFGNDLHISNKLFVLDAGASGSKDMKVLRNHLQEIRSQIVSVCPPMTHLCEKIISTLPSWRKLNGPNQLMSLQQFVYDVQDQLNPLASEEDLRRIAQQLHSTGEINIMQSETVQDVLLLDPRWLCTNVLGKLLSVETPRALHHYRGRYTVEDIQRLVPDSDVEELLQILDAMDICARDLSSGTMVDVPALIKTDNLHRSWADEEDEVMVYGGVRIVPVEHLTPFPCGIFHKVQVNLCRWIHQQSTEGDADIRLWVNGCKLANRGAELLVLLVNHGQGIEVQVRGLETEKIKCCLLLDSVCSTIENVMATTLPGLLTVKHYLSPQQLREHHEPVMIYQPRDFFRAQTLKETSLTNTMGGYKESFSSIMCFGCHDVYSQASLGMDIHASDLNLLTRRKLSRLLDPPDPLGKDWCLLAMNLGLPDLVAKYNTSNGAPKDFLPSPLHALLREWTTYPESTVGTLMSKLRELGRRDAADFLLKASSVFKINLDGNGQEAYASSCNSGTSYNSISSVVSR
Test [4] concerns the target Fibroblast growth factor receptor 2 (Homo sapiens) (UniProt P21802). Briefly: FGFR2 SGC Tm panel (DSF). Conditions: Compound concentration 20.0 uM.
Test [5] deals with Dual specificity mitogen-activated protein kinase kinase 1 (Homo sapiens) (UniProt Q02750). Briefly: MAP2K1 SGC Tm panel (DSF). The note with it: Compound concentration 20.0 uM.
The target of test [6] is Dual specificity mitogen-activated protein kinase kinase 4 (Homo sapiens) (UniProt P45985). Kind of test: MAP2K4 SGC Tm panel (DSF). Conditions: Compound concentration 20.0 uM.
Test [7] concerns the target Serine/threonine-protein kinase 26 (Homo sapiens) (UniProt Q9P289). Kind of test: MST4 SGC Tm panel (DSF). The note with it: Compound concentration 20.0 uM.
The target of test [8] is Serine/threonine-protein kinase Nek2 (Homo sapiens) (UniProt P51955). Briefly: NEK2 SGC Tm panel (DSF). The note with it: Compound concentration 20.0 uM.
Serine/threonine-protein kinase Nek2 (Homo sapiens), sequence (P51955 whole entry): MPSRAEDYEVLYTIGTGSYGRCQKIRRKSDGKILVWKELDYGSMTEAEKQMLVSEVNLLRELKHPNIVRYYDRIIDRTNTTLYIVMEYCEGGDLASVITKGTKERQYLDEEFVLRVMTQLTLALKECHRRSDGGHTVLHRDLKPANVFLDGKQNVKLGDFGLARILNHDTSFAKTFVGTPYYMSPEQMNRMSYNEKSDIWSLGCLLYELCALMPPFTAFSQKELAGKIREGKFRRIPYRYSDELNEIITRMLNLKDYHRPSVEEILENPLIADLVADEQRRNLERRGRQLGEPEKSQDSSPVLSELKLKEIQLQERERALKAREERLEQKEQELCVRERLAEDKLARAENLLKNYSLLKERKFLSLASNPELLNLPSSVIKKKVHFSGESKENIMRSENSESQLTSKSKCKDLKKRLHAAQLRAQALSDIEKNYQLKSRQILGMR
The target in test [9] is Serine/threonine-protein kinase 24 (Homo sapiens) (UniProt Q9Y6E0). Kind of test: STK24 SGC Tm panel (DSF). The note with it: Compound concentration 20.0 uM.
Serine/threonine-protein kinase 24 (Homo sapiens), sequence (Q9Y6E0 whole entry, looked up): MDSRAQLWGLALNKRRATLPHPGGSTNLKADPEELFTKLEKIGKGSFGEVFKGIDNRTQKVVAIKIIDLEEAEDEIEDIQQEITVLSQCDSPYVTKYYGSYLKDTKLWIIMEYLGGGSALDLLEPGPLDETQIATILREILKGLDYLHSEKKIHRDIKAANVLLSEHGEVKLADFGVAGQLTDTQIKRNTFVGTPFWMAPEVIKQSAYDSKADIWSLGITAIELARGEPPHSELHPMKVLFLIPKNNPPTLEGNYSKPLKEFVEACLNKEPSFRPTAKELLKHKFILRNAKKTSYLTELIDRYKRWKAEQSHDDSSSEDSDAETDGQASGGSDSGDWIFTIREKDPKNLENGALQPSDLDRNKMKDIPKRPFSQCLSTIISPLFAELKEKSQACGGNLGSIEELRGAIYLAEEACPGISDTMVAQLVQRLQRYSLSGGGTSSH
Test [10] concerns the target Serine/threonine-protein kinase VRK1 (Homo sapiens) (UniProt Q99986). Kind of test: VRK1 SGC Tm panel (DSF). Conditions: Compound concentration 20.0 uM.
For test [11], the target named is 5-hydroxytryptamine receptor 1A (Homo sapiens) (UniProt P08908). The note with it: Compound concentration 10.0 uM.
For test [12], the target named is D(1A) dopamine receptor (Homo sapiens) (UniProt P21728). Conditions: Compound concentration 10.0 uM.
D(1A) dopamine receptor (Homo sapiens), sequence (P21728 whole entry): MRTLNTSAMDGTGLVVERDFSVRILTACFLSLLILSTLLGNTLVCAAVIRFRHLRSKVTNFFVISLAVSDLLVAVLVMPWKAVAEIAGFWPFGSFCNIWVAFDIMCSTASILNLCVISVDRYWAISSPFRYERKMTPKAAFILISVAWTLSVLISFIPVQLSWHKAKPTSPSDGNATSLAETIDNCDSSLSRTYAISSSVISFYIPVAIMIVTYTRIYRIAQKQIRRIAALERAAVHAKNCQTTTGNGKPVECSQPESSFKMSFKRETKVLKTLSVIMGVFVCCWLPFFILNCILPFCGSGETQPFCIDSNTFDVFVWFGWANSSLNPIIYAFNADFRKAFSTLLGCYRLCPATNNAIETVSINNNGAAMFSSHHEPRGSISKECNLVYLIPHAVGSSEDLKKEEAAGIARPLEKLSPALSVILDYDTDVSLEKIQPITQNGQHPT
The target of test [13] is Sodium-dependent noradrenaline transporter (Homo sapiens) (UniProt P23975). Conditions: Compound concentration 10.0 uM.
Test [14] deals with T1, Sigma intracellular receptor 2. The note with it: Compound concentration 10.0 uM.
Test [15] addresses Myoneurin (Homo sapiens) (UniProt Q9NPC7). The note with it: SUD4, Compound concentration 1.0 uM.
Test [16] has as its target T2, Zinc finger and BTB domain-containing protein 44 (Homo sapiens) (UniProt Q8NCP5).
T2 sequence (whole entry): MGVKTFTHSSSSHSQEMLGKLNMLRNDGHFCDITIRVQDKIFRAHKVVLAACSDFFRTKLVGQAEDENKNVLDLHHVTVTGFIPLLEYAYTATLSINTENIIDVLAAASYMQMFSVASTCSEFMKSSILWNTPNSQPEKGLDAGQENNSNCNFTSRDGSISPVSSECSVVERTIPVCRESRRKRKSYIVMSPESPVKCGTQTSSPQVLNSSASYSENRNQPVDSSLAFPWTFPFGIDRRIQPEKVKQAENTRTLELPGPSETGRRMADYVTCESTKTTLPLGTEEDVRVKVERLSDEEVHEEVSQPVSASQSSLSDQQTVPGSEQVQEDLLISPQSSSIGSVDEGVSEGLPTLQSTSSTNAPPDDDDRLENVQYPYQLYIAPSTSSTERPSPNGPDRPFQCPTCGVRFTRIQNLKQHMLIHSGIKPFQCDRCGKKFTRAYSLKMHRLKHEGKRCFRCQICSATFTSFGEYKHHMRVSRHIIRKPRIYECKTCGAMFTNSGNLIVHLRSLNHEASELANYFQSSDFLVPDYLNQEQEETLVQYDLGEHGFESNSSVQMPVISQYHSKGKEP
The note with it: SUD4, Compound concentration 1.0 uM.

The target of test [17] is Zinc finger and BTB domain-containing protein 17 (Homo sapiens) (UniProt Q13105). The note with it: SUD4, Compound concentration 1.0 uM.
The target in test [18] is Zinc finger and BTB domain-containing protein 14 (Homo sapiens) (UniProt O43829). The note with it: SUD4, Compound concentration 1.0 uM.
Zinc finger and BTB domain-containing protein 14 (Homo sapiens), sequence (O43829 whole entry, the tested form may be a part): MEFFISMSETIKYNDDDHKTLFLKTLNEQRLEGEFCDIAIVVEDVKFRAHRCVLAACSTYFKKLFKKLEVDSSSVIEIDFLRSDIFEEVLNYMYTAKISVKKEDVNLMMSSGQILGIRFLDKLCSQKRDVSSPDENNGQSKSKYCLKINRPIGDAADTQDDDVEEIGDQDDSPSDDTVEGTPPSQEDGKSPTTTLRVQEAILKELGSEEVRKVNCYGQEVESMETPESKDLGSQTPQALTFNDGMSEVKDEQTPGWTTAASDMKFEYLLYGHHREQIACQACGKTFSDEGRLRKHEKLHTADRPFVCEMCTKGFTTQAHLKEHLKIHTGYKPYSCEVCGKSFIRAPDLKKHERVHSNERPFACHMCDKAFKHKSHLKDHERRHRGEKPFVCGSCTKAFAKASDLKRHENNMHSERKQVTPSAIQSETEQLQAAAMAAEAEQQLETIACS
For test [19], the target named is Protein archease (Homo sapiens) (UniProt Q8IWT0). The note with it: SUD4, Compound concentration 1.0 uM.
Test [20] has as its target T2, Zinc finger and BTB domain-containing protein 44 (Homo sapiens). The note with it: SUD4, Compound concentration 1.0 uM. This is another data set of the same source.
Test [21] concerns the target T3, Zinc finger and BTB domain-containing protein 1 (Homo sapiens) (UniProt Q9Y2K1).
T3 sequence (whole entry): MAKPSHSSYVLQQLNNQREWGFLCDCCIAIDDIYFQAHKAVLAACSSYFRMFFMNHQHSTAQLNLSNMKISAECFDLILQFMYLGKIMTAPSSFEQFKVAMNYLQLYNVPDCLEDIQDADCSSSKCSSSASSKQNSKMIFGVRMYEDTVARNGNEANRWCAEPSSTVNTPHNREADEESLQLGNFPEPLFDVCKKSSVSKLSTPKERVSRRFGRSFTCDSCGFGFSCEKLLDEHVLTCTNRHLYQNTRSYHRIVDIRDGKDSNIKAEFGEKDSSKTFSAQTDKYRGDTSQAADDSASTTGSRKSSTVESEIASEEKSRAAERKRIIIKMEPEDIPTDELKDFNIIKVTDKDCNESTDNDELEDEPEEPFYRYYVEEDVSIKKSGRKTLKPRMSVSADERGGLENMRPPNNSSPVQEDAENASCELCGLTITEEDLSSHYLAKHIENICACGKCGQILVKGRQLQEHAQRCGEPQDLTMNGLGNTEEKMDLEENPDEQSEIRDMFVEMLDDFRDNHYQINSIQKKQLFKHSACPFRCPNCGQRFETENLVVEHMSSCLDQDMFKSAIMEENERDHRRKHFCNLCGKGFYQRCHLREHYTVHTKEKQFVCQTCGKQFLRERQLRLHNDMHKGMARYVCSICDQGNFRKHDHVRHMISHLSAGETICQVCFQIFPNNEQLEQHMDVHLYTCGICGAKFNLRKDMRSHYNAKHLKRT
Conditions: SUD4, Compound concentration 1.0 uM.

T1 sequence (Q5BJF2 whole entry): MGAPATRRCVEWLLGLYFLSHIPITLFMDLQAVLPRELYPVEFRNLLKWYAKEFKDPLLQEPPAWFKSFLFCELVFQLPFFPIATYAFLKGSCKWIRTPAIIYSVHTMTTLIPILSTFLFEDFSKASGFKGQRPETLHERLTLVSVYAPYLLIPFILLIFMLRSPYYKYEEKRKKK
Serine/threonine-protein kinase 26 (Homo sapiens), sequence (Q9P289 2-416 limits assumed): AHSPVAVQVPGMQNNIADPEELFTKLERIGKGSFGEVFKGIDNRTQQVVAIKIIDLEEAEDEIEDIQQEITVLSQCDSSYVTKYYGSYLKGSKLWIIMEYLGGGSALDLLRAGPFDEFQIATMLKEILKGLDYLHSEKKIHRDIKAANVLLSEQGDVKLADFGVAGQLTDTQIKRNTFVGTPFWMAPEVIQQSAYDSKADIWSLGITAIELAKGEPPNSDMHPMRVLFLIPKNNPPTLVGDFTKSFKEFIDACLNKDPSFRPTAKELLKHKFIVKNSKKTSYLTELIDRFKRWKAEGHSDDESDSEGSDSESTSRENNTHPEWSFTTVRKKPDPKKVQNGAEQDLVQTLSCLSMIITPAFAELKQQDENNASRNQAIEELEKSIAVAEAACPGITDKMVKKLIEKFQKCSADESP
Serine/threonine-protein kinase VRK1 (Homo sapiens), sequence (Q99986 whole entry): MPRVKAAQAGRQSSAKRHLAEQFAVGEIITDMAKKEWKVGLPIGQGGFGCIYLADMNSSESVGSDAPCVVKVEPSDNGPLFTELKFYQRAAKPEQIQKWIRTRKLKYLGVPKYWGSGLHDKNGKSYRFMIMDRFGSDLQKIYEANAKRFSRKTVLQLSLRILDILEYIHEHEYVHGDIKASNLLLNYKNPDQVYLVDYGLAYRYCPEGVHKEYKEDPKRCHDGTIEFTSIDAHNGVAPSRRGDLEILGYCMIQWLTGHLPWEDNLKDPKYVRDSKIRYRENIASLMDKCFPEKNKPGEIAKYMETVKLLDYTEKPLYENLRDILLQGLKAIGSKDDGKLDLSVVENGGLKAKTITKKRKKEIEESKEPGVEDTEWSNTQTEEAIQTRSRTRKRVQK
Fibroblast growth factor receptor 2 (Homo sapiens), sequence (P21802 22-821 limits assumed): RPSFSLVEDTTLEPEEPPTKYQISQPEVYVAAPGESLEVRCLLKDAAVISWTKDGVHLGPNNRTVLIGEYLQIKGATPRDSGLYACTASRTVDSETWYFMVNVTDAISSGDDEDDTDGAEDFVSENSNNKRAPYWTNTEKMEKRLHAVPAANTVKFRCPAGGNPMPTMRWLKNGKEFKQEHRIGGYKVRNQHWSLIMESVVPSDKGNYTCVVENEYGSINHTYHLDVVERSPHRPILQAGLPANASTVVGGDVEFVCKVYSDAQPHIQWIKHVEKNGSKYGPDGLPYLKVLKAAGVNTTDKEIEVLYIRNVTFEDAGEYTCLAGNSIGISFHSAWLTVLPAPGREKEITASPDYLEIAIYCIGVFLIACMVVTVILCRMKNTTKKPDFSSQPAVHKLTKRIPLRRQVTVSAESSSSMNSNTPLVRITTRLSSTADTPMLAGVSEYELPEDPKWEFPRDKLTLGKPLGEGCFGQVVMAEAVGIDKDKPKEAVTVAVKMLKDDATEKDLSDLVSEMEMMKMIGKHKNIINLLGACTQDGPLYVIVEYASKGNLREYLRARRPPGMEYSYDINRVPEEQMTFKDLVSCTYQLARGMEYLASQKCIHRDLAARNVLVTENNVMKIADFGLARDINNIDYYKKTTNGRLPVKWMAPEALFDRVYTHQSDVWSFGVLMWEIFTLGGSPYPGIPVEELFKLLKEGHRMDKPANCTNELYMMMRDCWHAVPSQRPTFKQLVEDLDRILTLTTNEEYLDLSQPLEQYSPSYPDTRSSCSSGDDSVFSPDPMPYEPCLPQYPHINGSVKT

With `C[C@@H]1CN(c2ncc(Cl)c(Nc3ccc4c(c3)n(CCC(C)(C)O)c(=O)n4C)n2)C[C@H](C)C1(F)F`, the Ki in test [1] amounted to 2500 nM. In addition, the Tm in test [2] was 44 °C; in [3], 53 °C; in test [4], 50 °C; in [5] it was 45 °C; in [6], 41 °C; in [7], 44 °C. Further, the Tm was 40 °C in [8], 36 °C in test [9] and 46 °C in test [10]. In addition, the inhibition in test [11] is 5.99%; in [12] it was 27.3%; in [13] it was 18.1%; in test [14], 85.7%. In addition, the LogFC in test [15] was -0.135; in [16], -0.00843; in [17] it was 0.0294; in [18], 0.0827; in test [19] it was 0.104; in [20], -0.235. The LogFC in [21] is -0.0255.
